# Experimental data: US20080221161A1, “HETEROCYCLIC MODULATORS OF TGR5 FOR TREATMENT OF DISEASE” (KALYPSYS, INC., priority 2007, published 2008)
# Biological target: T1, human TGR5 (Homo sapiens, UniProt Q8TDU6)
# T1 construct: expressed in transfected cells; host or cells: HEK-293 cells, stably transfected (pcDNA 3.1, Fugene6, geneticin selection)
# T1 sequence (Q8TDU6 1-330): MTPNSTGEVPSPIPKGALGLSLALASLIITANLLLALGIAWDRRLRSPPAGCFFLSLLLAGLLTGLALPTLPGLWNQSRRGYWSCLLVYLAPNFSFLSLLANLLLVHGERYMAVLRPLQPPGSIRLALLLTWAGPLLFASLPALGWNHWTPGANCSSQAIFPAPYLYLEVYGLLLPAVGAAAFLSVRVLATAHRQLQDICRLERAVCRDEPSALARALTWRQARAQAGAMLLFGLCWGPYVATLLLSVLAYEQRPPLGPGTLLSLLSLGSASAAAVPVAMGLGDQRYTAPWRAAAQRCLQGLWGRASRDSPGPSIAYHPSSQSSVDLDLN
# Test: cAMP production assay in HEK293-TGR5 cells
# Format: cell-based
# Settings: HEK293 cells stably expressing human TGR5; 30 minutes stimulation; LANCE cAMP TR-FRET; read-out: cAMP Production in 293-TGR5 Cells EC50
# Experimental: HEK293 cells stably expressing TGR5 (HEK293-TGR5) were established by stably transfecting HEK-293 cells with an expression vector (pcDNA 3.1, Invetrogen) inserted with human TGR5 cDNA using Fugene6 (Roche, Indianapolis, Ind.) according to conventional methods. Cells were grown in DMEM (invitrogen, Carlsbad, Calif.) supplemented with 10% FBS, 1% penicillin/streptomycin under geneticin selection. The presence of TGR5 transcripts in these cells was confirmed using branched DNA (bDNA, Genospectra, Inc., Fremont Calif.) following the manufacturer's protocol and using specific probes for human TGR5. cAMP production assay was performed in high throughput 1536 well format using LANCE cAMP detection kit (Perkin Elmer Inc., Boston, Mass.) according to the manufacturer's protocol. Briefly, HEK293-TGR5 cells were harvested using non-enzymatic cell dissociation buffer (Invitrogen, Carlsbad, Calif.) and suspended in DMEM supplemented with 0.1% FBS at a density of 800,000 cells/ml. Alexa antibody was added to the cell suspension, and 4 ul of the mixture was dispensed in white opaque tissue culture treated Greiner 1536 well plates (USA Scientific, Inc., Ocala, Fla.). After an overnight incubation at 37C in an atmosphere of 10% CO2 and 95% humidity, 1 ul of 5 mM IBMX (Sigma, St. Louis, Mo.) solution in DMEM was dispensed for a final concentration of 1 mM. Cells were then stimulated with test compounds for 30 minutes, after which time 5 ul of detection reagent was added and incubated for 1-7 hrs at room temperature. TR-FRET signal was detected using the Viewlux (Perkin Elmer Inc., Boston Mass.). EC50 values were determined using Graph Pad Prizm analysis (GraphPad Software, Inc).
row,SMILES,EC50 [µM]
1,"COc1ccc2cc(CNCCCc3ccccc3)c(-c3ccncc3)nc2c1 [Example 81, N-((7-Methoxy-2-(pyridin-4-yl)quinolin-3-yl)methyl)-3-phenylpropan-1-amine]",< 10
2,"COc1ccc2cc(CNCc3ccc(C(F)(F)F)cc3)c(Oc3cccnc3)nc2c1 [Example 83, 1-(7-methoxy-2-(pyridin-3-yloxy)quinolin-3-yl)-N-(4-(trifluoromethyl)benzyl)methanamine]",< 10
3,"COc1ccc2cc(CN[C@H](C)c3ccc(C)cc3)c(-c3ccncc3)nc2c1 [Example 85, (R)—N-((7-Methoxy-2-(pyridin-4-yl)quinolin-3-yl)methyl)-1-p-tolylethanamine]",< 10
4,"COc1ccc2cc(CNCc3ccc(F)cc3F)c(-c3ccncc3)nc2c1 [Example 87, N-(2,4-Difluorobenzyl)-1-(7-methoxy-2-(pyridin-4-yl)quinolin-3-yl)methanamine]",< 10
5,"CN(C)c1ccc2cc(CNCc3ccc(C(F)(F)F)cc3)c(-c3ccsc3)nc2c1 [Example 88, N,N-Dimethyl-2-(thiophen-3-yl)-3-((4-(trifluoromethyl)benzylamino)methyl)quinolin-7-amine]",> 10
6,"CN(C)c1ccc2cc(CNCCc3ccc(Br)cc3)c(-c3ccsc3)nc2c1 [Example 89, 3-((4-Bromophenethylamino)methyl)-N,N-dimethyl-2-(thiophen-3-yl)quinolin-7-amine]",> 10
7,"COc1ccc2cc(CNCc3ccc(C(F)(F)F)cc3)c(-c3ccoc3)nc2c1 [Example 90, 1-(2-(Furan-3-yl)-7-methoxyquinolin-3-yl)-N-(4-(trifluoromethyl)benzyl)methanamine]",> 10
8,"COc1ccc2cc(CNCc3ccc(F)c(Cl)c3)c(-c3ccncc3)nc2c1 [Example 92, N-(3-Chloro-4-fluorobenzyl)-1-(7-methoxy-2-(pyridin-4-yl)quinolin-3-yl)methanamine]",< 10
9,"COc1ccc2cc(CNCCc3c[nH]c4ccc(O)cc34)c(-c3ccncc3)nc2c1 [Example 93, 3-(2-((7-Methoxy-2-(pyridin-4-yl)quinolin-3-yl)methylamino)ethyl)-1H-indol-5-ol]",> 10
10,"COc1ccc2cc(CNCc3ccc(C(F)(F)F)cc3)c(Sc3ccncc3)nc2c1 [Example 94, 1-(7-Methoxy-2-(pyridin-4-ylthio)quinolin-3-yl)-N-(4-(trifluoromethyl)benzyl)methanamine]",> 10
11,"COc1ccc2cc(CNCCc3ccc(Cl)cc3)c(Sc3ccncc3)nc2c1 [Example 95, 2-(4-Chlorophenyl)-N-((7-methoxy-2-(pyridin-4-ylthio)quinolin-3-yl)methyl)ethanamine]",> 10
12,"Oc1ccc2cc(CNCCc3ccc(Br)cc3)c(-c3ccncc3)nc2c1 [Example 96, 3-((4-Bromophenethylamino)methyl)-2-(pyridin-4-yl)quinolin-7-ol]",< 10
13,"Oc1ccc2cc(CNCCc3ccc(Br)cc3)c(-c3ccccc3)nc2c1 [Example 100, 3-((4-Bromophenethylamino)methyl)-2-phenylquinolin-7-ol]",< 10
14,"Oc1ccc2cc(CNCCc3ccc(Cl)c(Cl)c3)c(-c3ccsc3)nc2c1 [Example 101, 3-((3,4-Dichlorophenethylamino)methyl)-2-(thiophen-3-yl)quinolin-7-ol]",< 10
15,"COc1ccc2cc(CCNCCc3ccc(Br)cc3)c(-c3ccsc3)nc2c1 [Example 102, N-(4-bromophenethyl)-2-(7-methoxy-2-(thiophen-3-yl)quinolin-3-yl)ethanamine]",> 10
16,"Oc1ccc2cc(CNCCc3ccc(Br)cc3)c(-c3ccco3)nc2c1 [Example 103, 3-((4-Bromophenethylamino)methyl)-2-(furan-2-yl)quinolin-7-ol]",> 10
17,"Oc1ccc2cc(CCNCCc3ccc(Br)cc3)c(-c3ccsc3)nc2c1 [Example 104, 3-(2-(4-Bromophenethylamino)ethyl)-2-(thiophen-3-yl)quinolin-7-ol]",> 10
18,"Oc1ccc2nc(-c3ccsc3)c(CNCCc3ccc(Cl)cc3)cc2c1 [Example 105, 3-((4-Chlorophenethylamino)methyl)-2-(thiophen-3-yl)quinolin-6-ol]",< 10

row,SMILES,EC50 [µM]
1,"COc1ccc2cc(CCNCc3ccc(C(F)(F)F)cc3)c(-c3ccsc3)nc2c1 [Example 106, 2-(7-Methoxy-2-(thiophen-3-yl)quinolin-3-yl)-N-(4-(trifluoromethyl)benzyl)ethanamine]",> 10
2,"Oc1ccc2cc(CCNCc3ccc(C(F)(F)F)cc3)c(-c3ccsc3)nc2c1 [Example 107, 2-(Thiophen-3-yl)-3-(2-(4-(trifluoromethyl)benzylamino)ethyl)quinolin-7-ol]",> 10
3,"Oc1ccc2cc(CNCCc3ccc(Br)cc3)c(-c3cccs3)nc2c1 [Example 108, 3-((4-Bromophenethylamino)methyl)-2-(thiophen-2-yl)quinolin-7-ol]",> 10
4,"Oc1ccc2cc(CNCCc3ccc(Br)cc3)c(-c3ccoc3)nc2c1 [Example 109, 3-((4-Bromophenethylamino)methyl)-2-(furan-3-yl)quinolin-7-ol]",> 10
5,"Oc1ccc2nc(-c3ccsc3)c(CNCc3ccc(C(F)(F)F)cc3)cc2c1 [Example 111, 2-(Thiophen-3-yl)-3-((4-(trifluoromethyl)benzylamino)methyl)quinolin-6-ol]",> 10
6,"Sc1ccc2cc(CNCCc3ccc(Br)cc3)c(-c3ccsc3)nc2c1 [Example 114, 3-((4-Bromophenethylamino)methyl)-2-(thiophen-3-yl)quinoline-7-thiol]",< 10
7,"COc1ccc2cc(NCc3ccc(C(F)(F)F)cc3)c(-c3ccsc3)nc2c1 [Example 115, 7-Methoxy-2-(thiophen-3-yl)-N-(4-(trifluoromethyl)benzyl)quinolin-3-amine]",> 10
8,"COc1ccc2cc(NCCc3ccc(Br)cc3)c(-c3ccsc3)nc2c1 [Example 116, N-(4-Bromophenethyl)-7-methoxy-2-(thiophen-3-yl)quinolin-3-amine]",< 10
9,"COc1ccc2cc(CNCCc3ccc(Cl)cc3)c(-c3ccoc3)nc2c1 [Example 117, 2-(4-Chlorophenyl)-N-((2-(furan-3-yl)-7-methoxyquinolin-3-yl)methyl)ethanamine]",> 10
10,"Oc1ccc2cc(CNCCc3ccc(Cl)cc3)c(-c3ccoc3)nc2c1 [Example 118, 3-((4-Chlorophenethylamino)methyl)-2-(furan-3-yl)quinolin-7-ol]",> 10
11,"COc1ccc2cc(CNC(=O)COc3cccc4ncccc34)c(-c3ccsc3)nc2c1 [Example 119, N-((7-Methoxy-2-(thiophen-3-yl)quinolin-3-yl)methyl)-2-(quinolin-5-yloxy)acetamide]",< 10
12,"Cc1c(CNCCc2ccc(Br)cc2)c(-c2ccsc2)nc2cc(O)ccc12 [Example 120, 3-((4-Bromophenethylamino)methyl)-4-methyl-2-(thiophen-3-yl)quinolin-7-ol]",> 10
13,"COc1ccc2cc(CNCCOc3cccc4ncccc34)c(-c3ccsc3)nc2c1 [Example 121, N-((7-Methoxy-2-(thiophen-3-yl)quinolin-3-yl)methyl)-2-(quinolin-5-yloxy)ethanamine]",< 10
14,"COc1cc2nc(-c3ccsc3)c(CNCc3ccc(C(F)(F)F)cc3)cc2cc1O [Example 122, 7-Methoxy-2-(thiophen-3-yl)-3-((4-(trifluoromethyl)benzylamino)methyl)quinolin-6-ol]",> 10
15,"COc1cc2cc(CNCCc3ccc(Br)cc3)c(-c3ccsc3)nc2cc1Cl [Example 123, 2-(4-Bromophenyl)-N-((7-chloro-6-methoxy-2-(thiophen-3-yl)quinolin-3-yl)methyl)ethanamine]",> 10
16,"Oc1cc2cc(CNCCc3ccc(Br)cc3)c(-c3ccsc3)nc2cc1Cl [Example 124, 3-((4-Bromophenethylamino)methyl)-7-chloro-2-(thiophen-3-yl)quinolin-6-ol]",> 10
17,"COc1cc2cc(CNCCc3ccc(Br)cc3)c(-c3ccsc3)nc2cc1F [Example 125, 2-(4-Bromophenyl)-N-((7-fluoro-6-methoxy-2-(thiophen-3-yl)quinolin-3-yl)methyl)ethanamine]",> 10
18,"Oc1cc2cc(CNCCc3ccc(Br)cc3)c(-c3ccsc3)nc2cc1F [Example 126, 3-((4-Bromophenethylamino)methyl)-7-fluoro-2-(thiophen-3-yl)quinolin-6-ol]",< 10
